The values below come from ChEMBL document CHEMBL1201862, “PubChem BioAssay data set” (2004).

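Method: 48-hour compound exposure of cells in 96-well plates, five concentrations, linear interpolation of endpoints. GI50 = concentration required for 50% inhibition of growth.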 Calls of active or inactive are those of the source. Rule as the data show it: active = GI50 up to about 1.1 µM and inactive = higher.

Among the test systems are LOX IMVI; SK-MEL-2; T47D; NCI-H522; COLO 205; HT-29; MDA-N; U-251; HL-60; IGROV-1; A549; OVCAR-5; UACC-62; OVCAR-8; SW-620; KM12; SK-MEL-28; NCI/ADR-RES; HOP-62; HCT-116.
Common to all, as to experiment: NCI-60 cell line screen, 48 h

For `CCOC(=O)C12OC(CCC1=O)C(C(=O)OC)=C2C(=O)OC` (stereo not given), the GI50 with LOX IMVI, with SK-MEL-2, in the test on T47D, in the test with NCI-H522, in the test with COLO 205 and in the test with HT-29 was > 10 µM (inactive) throughout. For the same compound, the GI50 in the test on MDA-N, with U-251, with HL-60, in the test with IGROV-1, in the test on A549 and in the test with OVCAR-5 was > 10 µM (inactive) throughout. The GI50 in the test on UACC-62, with OVCAR-8, in the test with SW-620, in the test with KM12, in the test with SK-MEL-28 and with NCI/ADR-RES was > 10 µM (inactive) each time. For the same compound, the GI50 in the test with HOP-62 and in the test on HCT-116 was > 10 µM (inactive) throughout.
Regarding `C[C@@]1(CCCCCCCCCCc2ccccc2)C[C@@]2(C)OC(=O)C[C@H]2OO1`, the GI50 in the test with LOX IMVI is 2.05 µM (inactive); with SK-MEL-2 it was 20.9 µM (inactive); with T47D, 2.49 µM (inactive); in the test with NCI-H522, 1.72 µM (inactive); in the test on COLO 205, 1.7 µM (inactive); with HT-29 it was 1.46 µM (inactive). For the same compound, the GI50 was 1.99 µM (inactive) with MDA-N; 1.55 µM (inactive) in the test with U-251; 0.399 µM (active) in the test on HL-60; 1.75 µM (inactive) in the test on IGROV-1; 2.76 µM (inactive) in the test on A549; 1.76 µM (inactive) in the test with OVCAR-5. For the same compound, the GI50 in the test on UACC-62 was 1.8 µM (inactive); in the test with OVCAR-8, 1.43 µM (inactive); with SW-620 it was 1.68 µM (inactive); with KM12, 1.81 µM (inactive); with SK-MEL-28 it was 2.07 µM (inactive); in the test with NCI/ADR-RES, 1.68 µM (inactive). Moreover, the GI50 in the test with HOP-62 was 1.57 µM (inactive); in the test on HCT-116 it was 1.45 µM (inactive).
As for `CN1C(c2ccccc2)CC(=NOCc2ccccc2)CC1c1ccccc1` (stereo not given), the GI50 with LOX IMVI was 14.8 µM (inactive); in the test on SK-MEL-2, 57.4 µM (inactive); with T47D, 17.7 µM (inactive); with NCI-H522, 21.8 µM (inactive); in the test with COLO 205 it was 50.6 µM (inactive); in the test on HT-29, 26.2 µM (inactive). The GI50 in the test on MDA-N is 23.3 µM (inactive); in the test with U-251 it was 34.1 µM (inactive); in the test with HL-60, 19 µM (inactive); in the test with IGROV-1, 38.1 µM (inactive); with A549 it was 20.7 µM (inactive); in the test on OVCAR-5, 70.8 µM (inactive). Moreover, the GI50 in the test with UACC-62 was 52.4 µM (inactive); in the test with OVCAR-8 it was 21.5 µM (inactive); in the test with SW-620 it was 28.1 µM (inactive); with KM12, 21.9 µM (inactive); in the test on SK-MEL-28 it was 40.8 µM (inactive); in the test on NCI/ADR-RES it was 19.3 µM (inactive). The GI50 with HOP-62 is 49.5 µM (inactive); with HCT-116, 18.5 µM (inactive).
For `COc1c(C)c2c(c(O)c1C/C=C(\C)CCC(=O)O)C(=O)OC2` [MYCOPHENOLIC ACID], the GI50 in the test on LOX IMVI was 0.401 µM (active); in the test with SK-MEL-2 it was > 51.4 µM (inactive); with T47D, 7.33 µM (inactive); in the test with NCI-H522 it was 0.442 µM (active); with COLO 205, 1.08 µM (active); in the test on HT-29, 0.867 µM (active). The GI50 with MDA-N is 1.46 µM (inactive); in the test on U-251, 0.342 µM (active); in the test with HL-60, 1.43 µM (inactive); in the test with IGROV-1 it was 1.18 µM (inactive); in the test on A549, 0.659 µM (active); with OVCAR-5, 7.05 µM (inactive). In addition, the GI50 with UACC-62 was 0.881 µM (active); in the test on OVCAR-8, 1.08 µM (active); in the test on SW-620, 0.571 µM (active); with KM12 it was 0.944 µM (active); with SK-MEL-28, 1.91 µM (inactive); in the test with NCI/ADR-RES, 2.97 µM (inactive). The GI50 was 6.44 µM (inactive) in the test on HOP-62 and 0.465 µM (active) in the test on HCT-116.
In the case of `COc1c(Br)cc2c(c1OC)C(Br)CCC(Br)(Br)C2=O` (stereo not given), the GI50 in the test with LOX IMVI was 0.419 µM (active); in the test on SK-MEL-2, 1.1 µM (active); in the test on T47D, 1.85 µM (inactive); in the test with NCI-H522, 0.393 µM (active); in the test with COLO 205, 1.82 µM (inactive); in the test with HT-29 it was 0.968 µM (active). The GI50 in the test with MDA-N was 0.242 µM (active); in the test with U-251, 2.18 µM (inactive); with HL-60, 0.787 µM (active); in the test on IGROV-1, 0.482 µM (active); with A549, 4.34 µM (inactive); with OVCAR-5 it was 4.92 µM (inactive). Also, the GI50 is 3.18 µM (inactive) with UACC-62; 0.378 µM (active) in the test on OVCAR-8; 0.38 µM (active) with SW-620; 3.72 µM (inactive) in the test on KM12; 2.5 µM (inactive) in the test with SK-MEL-28; 0.587 µM (active) in the test with NCI/ADR-RES. For the same compound, the results for the GI50 in the test with HOP-62 and in the test on HCT-116 were 2.19 µM (inactive) and 0.273 µM (active), respectively.
As for `CNc1ccc([S+]([O-])Nc2ccccc2)cc1` (stereo not given), the GI50 in the test with LOX IMVI was 41.9 µM (inactive); in the test on SK-MEL-2, 86.3 µM (inactive); in the test on T47D, 19.5 µM (inactive); in the test with NCI-H522, 19 µM (inactive); in the test with COLO 205, 26.4 µM (inactive); in the test on HT-29, 97.7 µM (inactive). Also, the GI50 with MDA-N was 46.1 µM (inactive); in the test with U-251 it was 36.2 µM (inactive); in the test on HL-60 it was 26.1 µM (inactive); in the test with IGROV-1 it was 41.6 µM (inactive); with A549, 45.6 µM (inactive); in the test on OVCAR-5 it was > 100 µM (inactive). For the same compound, the GI50 was 23.4 µM (inactive) in the test with UACC-62; 56.2 µM (inactive) in the test with OVCAR-8; 70.8 µM (inactive) in the test with SW-620; 21.8 µM (inactive) with KM12; > 100 µM (inactive) in the test on SK-MEL-28; 65.6 µM (inactive) with NCI/ADR-RES. The GI50 was 58.3 µM (inactive) in the test on HOP-62 and 40.2 µM (inactive) with HCT-116.
On to `CN1C(=O)C(CC(=O)O)NC1=S` (stereo not given), for which the GI50 in the test with LOX IMVI was > 100 µM (inactive); in the test with SK-MEL-2, > 100 µM (inactive); in the test with T47D, 51.4 µM (inactive); in the test with NCI-H522, > 100 µM (inactive); in the test on COLO 205 it was > 100 µM (inactive); in the test with HT-29, > 100 µM (inactive). For the same compound, the GI50 is > 100 µM (inactive) in the test on MDA-N; > 100 µM (inactive) with U-251; > 100 µM (inactive) in the test on HL-60; 99.5 µM (inactive) in the test on IGROV-1; > 100 µM (inactive) with A549; > 100 µM (inactive) with OVCAR-5. In addition, the GI50 with UACC-62, with OVCAR-8, in the test with SW-620, in the test with KM12, in the test with SK-MEL-28 and in the test on NCI/ADR-RES was > 100 µM (inactive) each time. For the same compound, the GI50 with HOP-62 was > 100 µM (inactive); with HCT-116, 95.5 µM (inactive).
